Measurements: patent publication US11697648B2, “Fused pyrimidine pyridinone compounds as JAK inhibitors” (THERAVANCE BIOPHARMA R&D IP, LLC, priority 2019, dated 2023)

How the values were obtained:
JAK2 = JAK2 (Homo sapiens (Human), UniProt O60674); assay: Biochemical JAK2 kinase assay (LanthaScreen)
In short: (§1)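 GST-JAK + GFP-STAT1 peptide, HEPES pH 7.5/MgCl2/EGTA/Brij-35 buffer; cpd preincubation 1 h RT; ATP start, 1 h RT; stop with 10 mM EDTA + 2 nM Tb-anti-pSTAT1; TR-FRET 520/495. 4-parameter IC50 → pKi (Cheng-Prusoff).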

Caco-2 cell monolayers = assay: Caco-2 permeation assay; type: in vitro ADME; conditions: 5 μM, A-B direction, with Verapamil (25 μM)
In short: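 Passive A-to-B permeability with P-gp inhibited by verapamil (25 μM); compound at 5 μM, n=2. Both compartments sampled at t0 and t120 and quantified by LC-MS/MS, giving apparent permeability in cm/sec from flux, area and concentration.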

Tyk2 = Tyk2 (Homo sapiens (Human), UniProt P29597); assay: Biochemical Tyk2 kinase assay (LanthaScreen)
In short: as §1

JAK3 = JAK3 (Homo sapiens (Human), UniProt P52333); assay: Biochemical JAK3 kinase assay (LanthaScreen); conditions: for JAK3 (pKi)-JAK1 (pKi): selectivity JAK3 over JAK1, difference of pKi
In short: as §1

[1] = tested on: IL-2 stimulated STAT5 phosphorylation in Tall-1 human T cell line (JAK3); assay: Cellular JAK3 potency assay: inhibition of IL-2 stimulated pSTAT5 in Tall-1 T cells; type: cell-based; conditions: IL-2 stimulated pSTAT5, Tall-1 T cells
In short: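 AlphaLISA SureFire Ultra measures STAT5 Tyr694/699 phosphorylation in lysed Tall-1 human T cells. Cells were exposed to compound for 1 h at 37 °C before a 30 min IL-2 challenge (300 ng/ml final). Values are pIC50 means with standard deviation from signal-versus-concentration curves.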

JAK1 = JAK1 (Homo sapiens (Human), UniProt P23458); assay: Biochemical JAK1 kinase assay (LanthaScreen)
In short: as §1

Sequence of JAK3 (P52333 whole entry): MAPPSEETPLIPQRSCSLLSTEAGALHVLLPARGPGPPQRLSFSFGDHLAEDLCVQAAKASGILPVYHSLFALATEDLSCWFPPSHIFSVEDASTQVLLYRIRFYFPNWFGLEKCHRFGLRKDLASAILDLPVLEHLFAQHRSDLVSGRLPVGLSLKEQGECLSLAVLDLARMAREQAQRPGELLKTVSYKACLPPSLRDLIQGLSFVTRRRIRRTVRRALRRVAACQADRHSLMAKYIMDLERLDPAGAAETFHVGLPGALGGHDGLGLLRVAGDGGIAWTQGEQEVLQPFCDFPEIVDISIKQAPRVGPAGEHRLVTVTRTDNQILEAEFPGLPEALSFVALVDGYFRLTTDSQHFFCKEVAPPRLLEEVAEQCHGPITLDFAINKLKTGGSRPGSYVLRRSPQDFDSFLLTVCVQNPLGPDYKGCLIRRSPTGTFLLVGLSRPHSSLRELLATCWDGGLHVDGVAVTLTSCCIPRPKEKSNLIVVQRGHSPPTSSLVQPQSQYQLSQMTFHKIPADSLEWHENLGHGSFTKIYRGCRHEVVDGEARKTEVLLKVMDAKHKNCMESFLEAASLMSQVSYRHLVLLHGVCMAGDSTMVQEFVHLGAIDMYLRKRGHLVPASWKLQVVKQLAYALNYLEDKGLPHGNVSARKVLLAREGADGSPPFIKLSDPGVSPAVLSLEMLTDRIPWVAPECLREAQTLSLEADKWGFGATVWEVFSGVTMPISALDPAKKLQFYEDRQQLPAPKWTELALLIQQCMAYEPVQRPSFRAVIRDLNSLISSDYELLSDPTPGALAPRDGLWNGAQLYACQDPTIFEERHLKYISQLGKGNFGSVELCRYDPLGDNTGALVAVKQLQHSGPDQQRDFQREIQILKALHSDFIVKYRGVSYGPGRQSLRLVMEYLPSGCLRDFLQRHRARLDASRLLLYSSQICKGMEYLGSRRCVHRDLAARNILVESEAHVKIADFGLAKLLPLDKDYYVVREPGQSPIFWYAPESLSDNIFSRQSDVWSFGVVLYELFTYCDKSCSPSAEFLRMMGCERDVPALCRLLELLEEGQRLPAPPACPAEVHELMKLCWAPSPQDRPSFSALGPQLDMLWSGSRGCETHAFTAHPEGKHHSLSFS
Sequence of JAK1 (P23458 whole entry): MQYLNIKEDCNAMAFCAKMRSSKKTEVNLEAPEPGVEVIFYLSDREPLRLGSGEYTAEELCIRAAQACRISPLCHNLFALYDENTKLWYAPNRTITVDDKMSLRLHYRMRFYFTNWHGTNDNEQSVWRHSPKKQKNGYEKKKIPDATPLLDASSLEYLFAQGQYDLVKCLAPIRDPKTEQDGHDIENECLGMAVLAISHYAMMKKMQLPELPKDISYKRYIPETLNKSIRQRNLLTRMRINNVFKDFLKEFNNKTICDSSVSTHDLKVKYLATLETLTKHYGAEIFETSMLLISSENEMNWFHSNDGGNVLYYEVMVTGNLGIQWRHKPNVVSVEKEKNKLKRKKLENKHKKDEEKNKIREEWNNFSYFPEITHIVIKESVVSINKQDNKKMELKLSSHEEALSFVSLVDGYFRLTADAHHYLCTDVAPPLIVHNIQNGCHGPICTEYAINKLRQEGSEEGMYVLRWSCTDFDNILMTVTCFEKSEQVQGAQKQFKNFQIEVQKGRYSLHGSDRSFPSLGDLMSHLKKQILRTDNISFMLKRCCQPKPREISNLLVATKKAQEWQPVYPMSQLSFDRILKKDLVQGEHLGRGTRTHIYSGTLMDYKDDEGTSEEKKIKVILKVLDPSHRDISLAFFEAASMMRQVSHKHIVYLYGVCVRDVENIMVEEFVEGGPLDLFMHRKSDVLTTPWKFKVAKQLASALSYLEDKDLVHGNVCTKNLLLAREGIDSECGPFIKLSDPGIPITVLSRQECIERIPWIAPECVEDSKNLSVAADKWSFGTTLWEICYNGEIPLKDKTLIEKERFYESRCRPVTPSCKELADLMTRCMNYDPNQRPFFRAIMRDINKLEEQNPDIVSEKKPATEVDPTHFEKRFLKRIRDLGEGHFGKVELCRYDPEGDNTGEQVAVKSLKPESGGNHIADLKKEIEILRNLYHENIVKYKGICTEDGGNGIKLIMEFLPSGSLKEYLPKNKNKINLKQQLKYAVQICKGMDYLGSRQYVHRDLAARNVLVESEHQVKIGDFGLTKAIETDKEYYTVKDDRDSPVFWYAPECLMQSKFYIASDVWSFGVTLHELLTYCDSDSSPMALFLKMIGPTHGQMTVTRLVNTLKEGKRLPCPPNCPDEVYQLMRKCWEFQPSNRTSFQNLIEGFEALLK
Sequence of Tyk2 (P29597 whole entry): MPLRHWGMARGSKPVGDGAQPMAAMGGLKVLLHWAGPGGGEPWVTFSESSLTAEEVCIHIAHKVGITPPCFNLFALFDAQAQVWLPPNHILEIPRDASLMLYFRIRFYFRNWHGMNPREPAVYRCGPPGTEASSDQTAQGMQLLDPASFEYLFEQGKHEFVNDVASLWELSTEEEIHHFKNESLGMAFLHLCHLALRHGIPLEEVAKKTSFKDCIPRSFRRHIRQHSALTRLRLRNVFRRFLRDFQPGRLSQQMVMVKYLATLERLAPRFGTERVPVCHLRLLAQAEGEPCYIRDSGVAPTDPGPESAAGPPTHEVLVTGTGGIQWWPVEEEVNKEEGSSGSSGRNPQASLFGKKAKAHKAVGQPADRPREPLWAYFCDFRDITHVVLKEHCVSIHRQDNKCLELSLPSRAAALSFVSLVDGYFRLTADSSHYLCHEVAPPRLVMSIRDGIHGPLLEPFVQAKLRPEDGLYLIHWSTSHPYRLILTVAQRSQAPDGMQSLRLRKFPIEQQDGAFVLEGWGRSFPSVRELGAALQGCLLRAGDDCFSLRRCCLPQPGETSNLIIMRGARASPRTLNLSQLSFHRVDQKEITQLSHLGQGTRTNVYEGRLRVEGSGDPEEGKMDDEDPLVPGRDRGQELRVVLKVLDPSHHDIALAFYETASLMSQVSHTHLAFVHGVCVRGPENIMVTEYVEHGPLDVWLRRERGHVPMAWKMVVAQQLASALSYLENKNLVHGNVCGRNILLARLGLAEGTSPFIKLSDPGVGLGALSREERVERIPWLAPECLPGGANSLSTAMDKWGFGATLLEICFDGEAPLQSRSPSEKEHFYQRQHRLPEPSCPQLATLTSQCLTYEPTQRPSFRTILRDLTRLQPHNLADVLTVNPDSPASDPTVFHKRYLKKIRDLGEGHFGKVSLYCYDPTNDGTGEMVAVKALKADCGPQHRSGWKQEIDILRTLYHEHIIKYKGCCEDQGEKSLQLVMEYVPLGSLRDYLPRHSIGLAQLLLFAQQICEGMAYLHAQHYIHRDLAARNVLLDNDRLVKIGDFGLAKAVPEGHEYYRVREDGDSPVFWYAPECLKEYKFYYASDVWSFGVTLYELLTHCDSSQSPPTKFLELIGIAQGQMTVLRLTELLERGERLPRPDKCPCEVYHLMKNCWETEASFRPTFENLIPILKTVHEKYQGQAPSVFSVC
Sequence of JAK2 (O60674 whole entry): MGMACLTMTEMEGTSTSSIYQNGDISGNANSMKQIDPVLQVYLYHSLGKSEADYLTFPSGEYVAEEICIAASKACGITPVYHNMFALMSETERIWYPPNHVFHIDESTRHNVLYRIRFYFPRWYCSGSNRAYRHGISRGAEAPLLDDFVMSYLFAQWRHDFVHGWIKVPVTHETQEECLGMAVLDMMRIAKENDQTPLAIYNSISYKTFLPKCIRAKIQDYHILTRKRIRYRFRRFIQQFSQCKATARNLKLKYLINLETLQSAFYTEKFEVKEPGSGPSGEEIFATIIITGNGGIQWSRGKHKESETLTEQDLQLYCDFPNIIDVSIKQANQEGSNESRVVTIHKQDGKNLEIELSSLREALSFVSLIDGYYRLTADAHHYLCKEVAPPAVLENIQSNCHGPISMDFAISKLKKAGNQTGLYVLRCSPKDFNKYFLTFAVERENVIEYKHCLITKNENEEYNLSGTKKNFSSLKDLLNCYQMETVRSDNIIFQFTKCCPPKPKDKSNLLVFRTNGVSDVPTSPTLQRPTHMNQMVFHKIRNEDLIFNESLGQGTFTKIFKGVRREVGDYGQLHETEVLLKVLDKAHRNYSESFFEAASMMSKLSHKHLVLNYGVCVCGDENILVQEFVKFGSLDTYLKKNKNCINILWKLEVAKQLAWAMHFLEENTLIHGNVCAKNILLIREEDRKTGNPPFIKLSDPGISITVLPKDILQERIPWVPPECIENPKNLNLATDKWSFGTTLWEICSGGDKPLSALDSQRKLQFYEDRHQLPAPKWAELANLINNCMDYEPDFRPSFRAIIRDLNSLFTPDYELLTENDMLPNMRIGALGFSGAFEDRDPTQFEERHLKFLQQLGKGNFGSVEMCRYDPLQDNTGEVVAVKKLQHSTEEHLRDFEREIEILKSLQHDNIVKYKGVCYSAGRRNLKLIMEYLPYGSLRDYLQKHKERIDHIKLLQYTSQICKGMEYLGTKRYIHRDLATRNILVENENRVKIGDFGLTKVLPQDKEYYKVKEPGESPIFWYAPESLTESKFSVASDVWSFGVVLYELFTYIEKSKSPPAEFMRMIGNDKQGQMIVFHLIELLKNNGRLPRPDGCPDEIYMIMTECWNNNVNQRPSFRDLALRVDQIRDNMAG

SMILES	JAK 2 (pKi) (JAK2)	Caco Kp (Caco-2 cell monolayers)	Tyk 2 (pKi) (Tyk2)	JAK 3 (pKi) (JAK3)	JAK3 (pKi)-JAK1 (pKi) (JAK3)	Tall-1 (pIC50) [1]	JAK 1 (pKi) (JAK1)
C=CC(=O)N1CCN(CCn2c(=O)ccc3cnc(Nc4cnn(C5CCOCC5)c4)nc32)[C@@H](CC)C1 [Example 197]	E (E represents a pKi value of 7 or below (Ki of 100 nM or above))	A (A represents a value below 5×10^−6 cm/sec)	E (E represents a pKi value of 7 or below (Ki of 100 nM or above))	B (B represents pKi value between 9 and 10 (Ki between 1 nM and 0.1 nM))	A (A represents a value of 3 or above)	B (B represents a pC50 value between 6.7 (included) and 7.5 (IC50 between 200 nM and 32 nM))	E (E represents a pKi value of 7 or below (Ki of 100 nM or above))
C=CC(=O)N1CCN(CCn2c(=O)ccc3cnc(Nc4ccc(N5CCN(C(=O)C[S+]([O-])CC)CC5)cc4)nc32)[C@@H](CC)C1 (stereo partly drawn) [Example 198]	E (E represents a pKi value of 7 or below (Ki of 100 nM or above))	A (A represents a value below 5×10^−6 cm/sec)	E (E represents a pKi value of 7 or below (Ki of 100 nM or above))	B (B represents pKi value between 9 and 10 (Ki between 1 nM and 0.1 nM))	A (A represents a value of 3 or above)	C (C represents a pIC50 value between 6 and 6.7 (IC50 between 1 μM and 200 nM))	E (E represents a pKi value of 7 or below (Ki of 100 nM or above))
C=CC(=O)N1CC(CCn2c(=O)ccc3cnc(Nc4ccc(N5CCN(C(=O)CCS(C)(=O)=O)CC5)cc4)nc32)C1 [Example 140]	E (E represents a pKi value of 7 or below (Ki of 100 nM or above))	A (A represents a value below 5×10^−6 cm/sec)	E (E represents a pKi value of 7 or below (Ki of 100 nM or above))	A (A represents a pKi value≥10 (Ki≤0.1 nM))	A (A represents a value of 3 or above)	C (C represents a pIC50 value between 6 and 6.7 (IC50 between 1 μM and 200 nM))	E (E represents a pKi value of 7 or below (Ki of 100 nM or above))
C=CC(=O)N1CCN(CCn2c(=O)ccc3cnc(Nc4cnn(C)c4)nc32)CC1 [Example 16]	E (E represents a pKi value of 7 or below (Ki of 100 nM or above))	A (A represents a value below 5×10^−6 cm/sec)	E (E represents a pKi value of 7 or below (Ki of 100 nM or above))	B (B represents pKi value between 9 and 10 (Ki between 1 nM and 0.1 nM))	A (A represents a value of 3 or above)	C (C represents a pIC50 value between 6 and 6.7 (IC50 between 1 μM and 200 nM))	E (E represents a pKi value of 7 or below (Ki of 100 nM or above))
C=CC(=O)N1CC(CCn2c(=O)ccc3cnc(Nc4ccc(N5CCN(C)CC5)c(O)c4)nc32)C1 [Example 136]	E (E represents a pKi value of 7 or below (Ki of 100 nM or above))	A (A represents a value below 5×10^−6 cm/sec)	E (E represents a pKi value of 7 or below (Ki of 100 nM or above))	B (B represents pKi value between 9 and 10 (Ki between 1 nM and 0.1 nM))	A (A represents a value of 3 or above)	A (A represents a pIC50 value≥7.5 (IC50≤32 nM))	E (E represents a pKi value of 7 or below (Ki of 100 nM or above))
C=CC(=O)N1CC(CCn2c(=O)ccc3cnc(Nc4ccc(N5CCN(C(=O)COC)CC5)cc4)nc32)C1 [Example 70]	E (E represents a pKi value of 7 or below (Ki of 100 nM or above))	A (A represents a value below 5×10^−6 cm/sec)	E (E represents a pKi value of 7 or below (Ki of 100 nM or above))	B (B represents pKi value between 9 and 10 (Ki between 1 nM and 0.1 nM))	A (A represents a value of 3 or above)	B (B represents a pC50 value between 6.7 (included) and 7.5 (IC50 between 200 nM and 32 nM))	E (E represents a pKi value of 7 or below (Ki of 100 nM or above))
